In patent US8815909B2, “Diaminocyclohexane compounds and uses thereof” (Bristol-Myers Squibb Company, priority 2011, dated 2014):
Structures can show the parent of a compound that is named as a salt.

Target: T1, human Y4 receptor (Homo sapiens, UniProt P50391)
T1 construct: expressed in transfected cells
Assay: NPY4 cAMP HTRF Agonist Assay (inhibitory cAMP assay, Gi activation by Y4 agonism)
Type: cell-based
Details: human Y4 stable CHO clonal cells, forskolin + IBMX; read-out: NPY4 cAMP HTRF Agonist Assay EC50
Description: NPY4 cAMP HTRF Agonist Assay
The functionality of the compound at Y4 receptor was analyzed using a inhibitory cAMP assay (CISBIO, HTRF cAMP kit #62AM4PEC) to measure the Gi activation by Y4 agonism.
The human Y4 stable CHO clonal cells were maintained in culture medium (F-12 containing 10% Fetal Bovine Serum, […] GENETICIN®, […] Zeocin). Before the experiment, 5 μL of 1 uM Forskolin (Sigma, # F6886) and 100 uM IBMX (Sigma, # I5879) in PBS buffer were added into 384-well plates (PE, Proxi-plate) that were pre-dotted with 100 nL compounds. The cells were removed from the flasks by Cellstripper, counted and adjusted to 1.0×10^6 cells/mL in PBS buffer, and added 5 μL/well (5000 cells/well) into the above 384-well plates. The cells were then covered and incubated for 30 minutes at room temperature. After incubation, 5 μL/well of D2-conjugate in HTRF lysis buffer was first added, followed by adding 5 μL/well of anti-cAMP Cryptate in HTRF lysis buffer. The plates were incubated for another 1 hour at room temperature and read on the EnVision Multilabel Plate Reader.
Compounds described herein were tested in the above assay.

T1 sequence (P50391 whole entry): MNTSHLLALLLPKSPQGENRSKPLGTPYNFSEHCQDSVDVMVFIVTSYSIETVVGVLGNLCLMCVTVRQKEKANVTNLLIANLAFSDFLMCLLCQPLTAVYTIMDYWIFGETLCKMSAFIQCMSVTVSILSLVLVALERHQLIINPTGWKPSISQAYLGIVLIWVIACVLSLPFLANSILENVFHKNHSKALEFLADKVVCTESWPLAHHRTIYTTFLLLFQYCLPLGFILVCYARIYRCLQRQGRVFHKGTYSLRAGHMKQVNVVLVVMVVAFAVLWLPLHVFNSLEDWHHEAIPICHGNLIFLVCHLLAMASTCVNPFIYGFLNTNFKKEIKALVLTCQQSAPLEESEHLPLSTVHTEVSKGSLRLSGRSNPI

SMILES | EC50 [nM]
N#Cc1ccc(N2CCC[C@H](N[C@@H]3CCCC[C@H]3Nc3ncc(-c4ccccc4)o3)C2)c(F)c1 [Example 51, 3-Fluoro-4-((S)-3-((1R,2R)-2-(5-phenyloxazol-2-ylamino)cyclohexylamino)piperidin-1-yl)benzonitrile] | 548
N#Cc1ccc(N2CCC[C@H](N[C@@H]3CCCC[C@H]3Nc3ncc(-c4ccc(OC(F)(F)F)cc4)o3)C2)c(F)c1 [Example 52, 3-Fluoro-4-((S)-3-((1R,2R)-2-(5-(4-(trifluoromethoxy)phenyl)oxazol-2-ylamino)cyclohexylamino)piperidin-1-yl)benzonitrile] | 193
N#Cc1ccc(N2CCC[C@H](N[C@@H]3CCCC[C@H]3Nc3cc(-c4ccccc4)ccn3)C2)cc1 [Example 53, 4-((S)-3-((1R,2R)-2-(4-Phenylpyridin-2-ylamino)cyclohexylamino)piperidin-1-yl)benzonitrile bis-trifluoroacetate] | 95
N#Cc1ccc(N2CCC[C@H](N[C@@H]3CCCC[C@H]3Nc3nnc(-c4ccccc4)o3)C2)cc1 [Example 54, 4-((S)-3-((1R,2R)-2-(5-Phenyl-1,3,4-oxadiazol-2-ylamino)cyclohexylamino)piperidin-1-yl)benzonitrile trifluoroacetate] | 272
N#Cc1ccc(N2CCC[C@H](N[C@@H]3CCCC[C@H]3Nc3nc4ccccc4o3)C2)cc1 [Example 55, 4-((S)-3-((1R,2R)-2-(Benzo[d]oxazol-2-ylamino)cyclohexylamino)piperidin-1-yl)benzonitrile] | 463
N#Cc1ccc(N2CCC[C@H](N[C@@H]3CCCC[C@H]3Nc3ncc(-c4ccc(OC(F)(F)F)cc4)o3)C2)cc1 [Example 56, 4-((S)-3-((1R,2R)-2-(5-(4-(Trifluoromethoxy)phenyl)oxazol-2-ylamino)cyclohexylamino)piperidin-1-yl)benzonitrile] | 23
N#Cc1ccc(N2CCC[C@H](N[C@@H]3CCCC[C@H]3Nc3ncc(-c4ccccc4)o3)C2)cc1 [Example 57, 4-((S)-3-((1R,2R)-2-(5-Phenyloxazol-2-ylamino)cyclohexylamino)piperidin-1-yl)benzonitrile] | 25
COc1ccc(-c2ccnc(N[C@@H]3CCCC[C@H]3N[C@H]3CCCN(c4ccc(C#N)cc4)C3)n2)cc1 [Example 58, 4-((S)-3-((1R,2R)-2-(4-(4-Methoxyphenyl)pyrimidin-2-ylamino)cyclohexylamino)piperidin-1-yl)benzonitrile trifluoroacetate] | 1170
N#Cc1ccc(N2CCC[C@H](N[C@@H]3CCCC[C@H]3Nc3nccc(-c4ccc(OC(F)(F)F)cc4)n3)C2)cc1 [Example 59, 4-((S)-3-((1R,2R)-2-(4-(4-(Trifluoromethoxy)phenyl)pyrimidin-2-ylamino)cyclohexylamino)piperidin-1-yl)benzonitrile bis-trifluoroacetate] | 297
N#Cc1ccc(N2CCC[C@H](N[C@@H]3CCCC[C@H]3Nc3nccc(-c4ccccc4)n3)C2)cc1 [Example 60, 4-((S)-3-((1R,2R)-2-(4-Phenylpyrimidin-2-ylamino)cyclohexylamino)piperidin-1-yl)benzonitrile bis-trifluoroacetate] | 500
N#Cc1ccc(N2CCC[C@H](N[C@@H]3CCCC[C@H]3Nc3nccc(-c4cccc(OC(F)(F)F)c4)n3)C2)cc1 [Example 61, 4-((S)-3-((1R,2R)-2-(4-(3-(Trifluoromethoxy)phenyl)pyrimidin-2-ylamino)cyclohexylamino)piperidin-1-yl)benzonitrile bis-trifluoroacetate] | 861
c1ccc(-c2cnc(N[C@@H]3CCCC[C@H]3N[C@H]3CCCN(c4ccc(-n5cccn5)cc4)C3)o2)cc1 [Example 62, (1R,2R)—N1-((S)-1-(4-(1H-Pyrazol-1-yl)phenyl)piperidin-3-yl)-N2-(5-phenyloxazol-2-yl)cyclohexane-1,2-diamine trifluoroacetate] | 61

The next lines start with the values.

EC50 [nM] | SMILES
174 | FC(F)(F)Oc1ccc(-c2cnc(N[C@@H]3CCCC[C@H]3N[C@H]3CCCN(c4ccc(-n5cccn5)cc4)C3)o2)cc1 [Example 63, (1R,2R)—N1-((S)-1-(4-(1H-Pyrazol-1-yl)phenyl)piperidin-3-yl)-N2-(5-(4-(trifluoromethoxy)phenyl)oxazol-2-yl)cyclohexane-1,2-diamine trifluoroacetate]
89 | c1ccc(-c2ccnc(N[C@@H]3CCCC[C@H]3N[C@H]3CCCN(c4ccc(-n5cccn5)cc4)C3)n2)cc1 [Example 64, (1R,2R)—N1-((S)-1-(4-(1H-Pyrazol-1-yl)phenyl)piperidin-3-yl)-N2-(4-phenylpyrimidin-2-yl)cyclohexane-1,2-diamine bis-trifluoroacetate]
62 | Cc1cnn(-c2ccc(N3CCC[C@H](N[C@@H]4CCCC[C@H]4Nc4nccc(-c5ccccc5)n4)C3)cc2)c1 [Example 65, (1R,2R)—N1-((S)-1-(4-(4-Methyl-1H-pyrazol-1-yl)phenyl)piperidin-3-yl)-N2-(4-phenylpyrimidin-2-yl)cyclohexane-1,2-diamine bis-trifluoroacetate]
1260 | Cc1cnn(-c2ccc(N3CCC[C@H](N[C@@H]4CCCC[C@H]4Nc4ncc(-c5ccc(OC(F)(F)F)cc5)o4)C3)cc2)c1 [Example 66, (1R,2R)—N1-((S)-1-(4-(4-Methyl-1H-pyrazol-1-yl)phenyl)piperidin-3-yl)-N2-(5-(4-(trifluoromethoxy)phenyl)oxazol-2-yl)cyclohexane-1,2-diamine bis-trifluoroacetate]
57 | Cc1ccn(-c2ccc(N3CCC[C@H](N[C@@H]4CCCC[C@H]4Nc4nccc(-c5ccccc5)n4)C3)cc2)n1 [Example 67, (1R,2R)—N1-((S)-1-(4-(3-Methyl-1H-pyrazol-1-yl)phenyl)piperidin-3-yl)-N2-(4-phenylpyrimidin-2-yl)cyclohexane-1,2-diamine bis-trifluoroacetate]
489 | Cc1ccn(-c2ccc(N3CCC[C@H](N[C@@H]4CCCC[C@H]4Nc4ncc(-c5ccc(OC(F)(F)F)cc5)o4)C3)cc2)n1 [Example 68, (1R,2R)—N1-((S)-1-(4-(3-Methyl-1H-pyrazol-1-yl)phenyl)piperidin-3-yl)-N2-(5-(4-(trifluoromethoxy)phenyl)oxazol-2-yl)cyclohexane-1,2-diamine bis-trifluoroacetate]
384 | FC(F)(F)c1ccn(-c2ccc(N3CCC[C@H](N[C@@H]4CCCC[C@H]4Nc4nccc(-c5ccccc5)n4)C3)cc2)n1 [Example 69, (1R,2R)—N1-(4-Phenylpyrimidin-2-yl)-N2-((S)-1-(4-(3-(trifluoromethyl)-1H-pyrazol-1-yl)phenyl)piperidin-3-yl)cyclohexane-1,2-diamine bis-trifluoroacetate]
799 | FC(F)(F)Oc1ccc(-c2cnc(N[C@@H]3CCCC[C@H]3N[C@H]3CCCN(c4ccc(-n5ccc(C(F)(F)F)n5)cc4)C3)o2)cc1 [Example 70, (1R,2R)—N1-(5-(4-(Trifluoromethoxy)phenyl)oxazol-2-yl)-N2-((S)-1-(4-(3-(trifluoromethyl)-1H-pyrazol-1-yl)phenyl)piperidin-3-yl)cyclohexane-1,2-diamine bis-trifluoroacetate]
45 | FC(F)(F)Oc1ccc(-c2cnc(N[C@@H]3CCCC[C@H]3N[C@H]3CCCN(c4ccc(C(F)(F)F)cc4)C3)o2)cc1 [Example 71, (1R,2R)—N1-(5-(4-(Trifluoromethoxy)phenyl)oxazol-2-yl)-N2-((S)-1-(4-(trifluoromethyl)phenyl)piperidin-3-yl)cyclohexane-1,2-diamine]
15 | FC(F)(F)c1ccc(N2CCC[C@H](N[C@@H]3CCCC[C@H]3Nc3ncc(-c4ccccc4)s3)C2)cc1 [Example 72, (1R,2R)—N1-(5-Phenylthiazol-2-yl)-N2-((S)-1-(4-(trifluoromethyl)phenyl)piperidin-3-yl)cyclohexane-1,2-diamine]
83 | Fc1cc(N2CCC[C@H](N[C@@H]3CCCC[C@H]3Nc3ncc(-c4ccc(OC(F)(F)F)cc4)o3)C2)ccc1C(F)(F)F [Example 73, (1R,2R)—N1-((S)-1-(3-Fluoro-4-(trifluoromethyl)phenyl)piperidin-3-yl)-N2-(5-(4-(trifluoromethoxy)phenyl)oxazol-2-yl)cyclohexane-1,2-diamine bis-trifluoroacetate]
420 | Fc1cc(N2CCC[C@H](N[C@@H]3CCCC[C@H]3Nc3nccc(-c4ccccc4)n3)C2)ccc1C(F)(F)F [Example 74, (1R,2R)—N1-((S)-1-(3-Fluoro-4-(trifluoromethyl)phenyl)piperidin-3-yl)-N2-(4-phenylpyrimidin-2-yl)cyclohexane-1,2-diamine bis-trifluoroacetate]
252 | FC(F)(F)c1ccc(N2CCC[C@H](N[C@@H]3CCCC[C@H]3Nc3cc(-c4ccccc4)ccn3)C2)cc1 [Example 75, (1R,2R)—N1-(4-Phenylpyridin-2-yl)-N2-((S)-1-(4-(trifluoromethyl)phenyl)piperidin-3-yl)cyclohexane-1,2-diamine]
21 | Fc1cccc(-c2cnc(N[C@@H]3CCCC[C@H]3N[C@H]3CCCN(c4ccc(C(F)(F)F)cc4)C3)o2)c1 [Example 76, (1R,2R)—N1-(5-(3-Fluorophenyl)oxazol-2-yl)-N2-((S)-1-(4-(trifluoromethyl)phenyl)piperidin-3-yl)cyclohexane-1,2-diamine]
